Laboratory results from patent US20240287046A1, “COMPOUNDS AND RADIOLIGANDS FOR TARGETING NEUROTENSIN RECEPTOR AND USES THEREOF” (Full-Life Technologies HK Limited, priority 2022, published 2024).
Where two headings read alike, the source gives them in different places.

Key:
human NTSR-1 = human NTSR-1 (Homo sapiens (Human), UniProt P30989); assay: radioligand competitive binding assay using ^177Lu labeled C-1 as reference radioligand; details: for IC50: Nonlin fit, single assay, HT-29 cells
Summary of the method: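 HT-29 cells expressing human NTSR-1 incubated with ¹⁷⁷Lu-C-1 (0.55 μCi/well) and test compound in RPMI-1640 + 0.25% BSA, 1 h at 37 °C (n=3). Unbound label removed by filtration, cell-bound radioactivity gamma-counted; IC50 from nonlinear regression of displacement.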

NTR1 = NTR1 (Homo sapiens (Human), UniProt P30989); details: cited from earlier work
Sequence of NTR1 (P30989 whole entry, species assumed): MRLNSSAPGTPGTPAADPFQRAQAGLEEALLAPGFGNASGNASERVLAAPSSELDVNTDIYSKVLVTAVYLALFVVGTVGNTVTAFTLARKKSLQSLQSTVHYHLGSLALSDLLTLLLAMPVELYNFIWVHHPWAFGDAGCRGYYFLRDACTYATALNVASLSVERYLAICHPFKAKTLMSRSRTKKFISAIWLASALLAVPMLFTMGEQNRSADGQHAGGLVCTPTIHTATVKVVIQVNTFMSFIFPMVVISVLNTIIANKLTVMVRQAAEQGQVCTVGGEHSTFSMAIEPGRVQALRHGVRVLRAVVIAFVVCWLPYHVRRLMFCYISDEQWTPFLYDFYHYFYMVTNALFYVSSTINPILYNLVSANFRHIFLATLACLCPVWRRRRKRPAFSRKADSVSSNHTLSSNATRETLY

Sequence of human NTSR-1 (P30989 whole entry): as the sequence (P30989 whole entry, species assumed) above

Relative Binding Affinity (human NTSR-1; Mean IC50 of C-1/Mean IC50 of the test compound): 13.7
IC50 (human NTSR-1; read-out: IC50 (nM) Mean): 2.05 nM
IC50 (human NTSR-1; read-out: LogIC50 Mean (converted)): 2.05 nM
Compound: COc1cccc(OC)c1-c1cc(C(=O)NC2(C(=O)O)C3CC4CC(C3)CC2C4)nn1-c1ccc(C(=O)N(C)CCCN(C)C)cc1C(C)C (stereo not shown) [Compound C-3, reference compound]
binding affinity to NTR1 as an antagonist (NTR1): high binding affinity
